The values that follow come from ChEMBL document CHEMBL1131905, “Tokaramide A, a new cathepsin B inhibitor from the marine sponge Theonella aff. mirabilis” (Bioorg Med Chem Lett, 1999).

Assay [1] deals with T1, Cathepsin B (Homo sapiens, UniProt P07858). The experiment in a line: Inhibitory activity against Cathepsin B was determined.
In assay [2] the target is T1, Cathepsin B. The experiment in a line: Inhibitory activity against Cathepsin B at a concentration of 1000 ng/mL.
The target of assay [3] is T1, Cathepsin B. The experiment in a line: Inhibitory activity against Cathepsin B at a concentration of 10 ng/mL.
Assay [4] concerns the target T1, Cathepsin B. The experiment in a line: Inhibitory activity against Cathepsin B at a concentration of 1 ng/mL.
The target in assay [5] is T1, Cathepsin B. The experiment in a line: Inhibitory activity against Cathepsin B at a concentration of 200 ng/mL.
Assay [6] addresses T1, Cathepsin B. The experiment in a line: Inhibitory activity against Cathepsin B at a concentration of 400 ng/mL.
The target of assay [7] is T1, Cathepsin B. The assay can be described thus: Inhibitory activity against Cathepsin B at a concentration of 50 ng/mL.
Assay [8] has as its target T1, Cathepsin B. The experiment in a line: Inhibitory activity against Cathepsin B at a concentration of 70 ng/mL.
In assay [9] the target is T1, Cathepsin B. The assay can be described thus: Inhibitory activity against Cathepsin B at a concentration of 7 ng/mL.
The target of assay [10] is T1, Cathepsin B. The experiment in a line: Inhibitory activity against Cathepsin B at a concentration of 4 ng/mL.
Assay [11] deals with T1, Cathepsin B. The experiment in a line: Inhibitory activity against Cathepsin B at a concentration of 900 ng/mL.
Assay [12] addresses T1, Cathepsin B. Conditions: 40 ng/mL.
Description: Inhibitory activity against Cathepsin B at a concentration of 40 ng/mL

One may read the IC50 as the concentration needed to halve the response being measured. The low end stands for inhibition by little substance, the high end for a need for much substance. For orientation: inhibition means how much of the control response was suppressed. Compound `CC(=O)N[C@@H](CC(C)C)C(=O)N[C@@H](CC(C)C)C(=O)N[C@H](C=O)CCCNC(=N)N` [LEUPEPTIN] showed a half-maximal inhibitory concentration (IC50) in assay [1] of 21.6 nM. The inhibition in [2] turned out to be 100%; in assay [3] it was 55%; in assay [4] it was 15%; in [5] it was 95%; in assay [6] it was 100%; in assay [7], 75%. Further, the inhibition in assay [8] is 82%; in [9], 35%; in assay [10], 25%; in assay [11] it was 100%.
In assay [1], `CC(C)C[C@H](NC(=O)[C@H]1O[C@@H]1C(=O)O)C(=O)NCCCCN=C(N)N` [E-64] showed an IC50 of 13.7 nM. Moreover, the inhibition came out at 75% in assay [3]; 24% in [4]; 98% in [5]; 100% in assay [6]; 90% in assay [7]; 95% in [8]. In addition, the inhibition in assay [9] amounted to 52%; in assay [10], 29%.
Compound `CC(C)[C@H](NC(=O)c1ccc(O)cc1)C(=O)N[C@H](C(=O)N[C@H](C=O)CCCN=C(N)N)C(C)C` [TOKARAMIDE A] gave an IC50 in assay [1] of 60.9 nM. The inhibition was 30% in [3]; 10% in [4]; 90% in assay [6]; 70% in assay [8]; 16% in [9]; 12% in assay [10]. For the same compound, the inhibition in [11] stood at 100%; in [12] it was 45%.
